The source of these data is patent publication US12441754B2, “Galactoside inhibitor of galectins” (GALECTO BIOTECH AB, priority 2019, dated 2025).

One assay addresses Galectin-1 (Homo sapiens, UniProt P09382). Description: fluorescence anisotropy assay, compound as inhibitor of galectin / fluorescein tagged saccharide probe interaction. Type of assay: binding. The source says:
(§1) Anal. Biochem. 334: 36-47, (Sörme et al., 2004) and Monovalent interactions of Galectin-1 By Salomonsson, Emma; Larumbe, Amaia; Tejler, Johan; Tullberg, Erik; Rydberg, Hanna; Sundin, Anders; Khabut, Areej; Frejd, Torbjorn; Lobsanov, Yuri D.; Rini, James M.; et al, From Biochemistry (2010), 49(44), 9518-9532, (Salomonsson et al., 2010).
Background: Fluorescence polarisation rises when a labelled molecule tumbles more slowly, as on binding a larger partner.

For the next assay, the target named is Galectin-3 (Homo sapiens, UniProt P17931). Described as above. The format is binding.
From the text: as §1

Chain of Galectin-1 (P09382 whole entry): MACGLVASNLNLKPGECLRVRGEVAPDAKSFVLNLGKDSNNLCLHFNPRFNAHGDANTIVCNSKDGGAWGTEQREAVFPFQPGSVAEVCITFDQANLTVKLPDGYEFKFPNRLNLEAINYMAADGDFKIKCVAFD
Chain of Galectin-3 (P17931 whole entry): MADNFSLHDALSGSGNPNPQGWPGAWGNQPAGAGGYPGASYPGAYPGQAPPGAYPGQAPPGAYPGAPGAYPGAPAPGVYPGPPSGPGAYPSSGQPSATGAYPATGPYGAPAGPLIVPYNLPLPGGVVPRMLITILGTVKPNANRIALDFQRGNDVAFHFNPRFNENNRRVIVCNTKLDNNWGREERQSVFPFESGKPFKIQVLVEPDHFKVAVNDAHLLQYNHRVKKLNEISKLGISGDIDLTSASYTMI

The Kd is the constant that tells how readily two partners part at equilibrium. Read a low Kd as tighter binding. Regarding `C#Cc1cnc(C(=O)N(C)C)c(S[C@H]2O[C@H](CO)[C@H](O)[C@H](n3cc(-c4nc(Cl)cs4)nn3)[C@H]2OC)c1` [Example 91, 5-Ethynyl-2-(N,N-dimethylcarbamoyl)pyridin-3-yl 3-[4-(4-chlorothiazol-2-yl)-1H-1,2,3-triazol-1-yl]-3-deoxy-2-O-methyl-1-thio-α-D-galactopyranoside], the figures for the Kd on Galectin-1 and on Galectin-3 were 24 nM and 51 nM, respectively.
On to `CCO[C@@H]1[C@@H](n2cc(-c3csc(N)n3)nn2)[C@@H](O)[C@@H](CO)O[C@@H]1Sc1cc(Cl)cnc1C` [Example 20, 5-Chloro-2-methylpyridin-3-yl 3-[4-(2-aminothiazol-4-yl)-1H-1,2,3-triazol-1-yl]-3-deoxy-2-O-ethyl-1-thio-α-D-galactopyranoside], for which the dissociation constant Kd amounted to 67 nM at Galectin-1 and 6200 nM on Galectin-3.
Take `CO[C@@H]1[C@@H](n2cc(-c3nc(Cl)cs3)nn2)[C@@H](O)[C@@H](CO)O[C@@H]1Sc1cc(Cl)cnc1-c1ccccn1` [Example 76, 5-Chloro-2-(pyridin-2-yl)-pyridin-3-yl 3-[4-(4-chlorothiazol-2-yl)-1H-1,2,3-triazol-1-yl]-3-deoxy-2-O-methyl-1-thio-α-D-galactopyranoside]: the results for the Kd at Galectin-1 and on Galectin-3 were 10 nM and 150 nM, respectively.
For the compound `CO[C@@H]1[C@@H](n2cc(-c3nccs3)nn2)[C@@H](O)[C@@H](CO)O[C@@H]1Sc1cc(Br)ccc1C#N` [Example 56, 5-Bromo-2-cyanophenyl 3-deoxy-2-O-methyl-3-[4-(2-thiazolyl)-1H-1,2,3-triazol-1-yl]-1-thio-α-D-galactopyranoside], the dissociation constant (Kd) at Galectin-1 came out at 96 nM; at Galectin-3 it was 2100 nM.
For the compound `CO[C@@H]1[C@@H](n2cc(-c3csc(N)n3)nn2)[C@@H](O)[C@@H](CO)O[C@@H]1Sc1cc(Cl)cnc1C` [Example 18, 5-Chloro-2-methylpyridin-3-yl 3-[4-(2-aminothiazol-4-yl)-1H-1,2,3-triazol-1-yl]-3-deoxy-2-O-methyl-1-thio-α-D-galactopyranoside], the Kd at Galectin-1 came to 120 nM; at Galectin-3 it was 5400 nM.
Turning to `CO[C@@H]1[C@@H](n2cc(-c3csc(N)n3)nn2)[C@@H](O)[C@@H](CO)O[C@@H]1Sc1cccc(Cl)c1` [Example 31, 3-Chlorophenyl 3-[4-(2-aminothiazol-4-yl)-1H-1,2,3-triazol-1-yl]-3-deoxy-2-O-methyl-1-thio-α-D-galactopyranoside], the Kd came out at 200 nM on Galectin-1 and 5600 nM at Galectin-3.
Consider `CO[C@@H]1[C@@H](n2cc(-c3nc(C)c(Cl)s3)nn2)[C@@H](O)[C@@H](CO)O[C@@H]1Sc1cc(Br)ccc1C#N` [Example 65, 5-Bromo-2-cyanophenyl 3-[4-(5-chloro-4-methylthiazol-2-yl)-1H-1,2,3-triazol-1-yl]-3-deoxy-2-O-methyl-1-thio-α-D-galactopyranoside], for which the Kd on Galectin-1 turned out to be 460 nM; at Galectin-3, 240 nM.
As for `CO[C@@H]1[C@@H](n2cc(-c3nc(C)cs3)nn2)[C@@H](O)[C@@H](CO)O[C@@H]1Sc1cc(Br)ccc1C#N` [Example 63, 5-Bromo-2-cyanophenyl 3-deoxy-3-[4-(4-methylthiazol-2-yl)-1H-1,2,3-triazol-1-yl]-2-O-methyl-1-thio-α-D-galactopyranoside], the Kd at Galectin-1 was determined as 54 nM; on Galectin-3, 2900 nM.
In the case of `Cc1sc(N)nc1-c1cn(C2C(O)[C@@H](Sc3cnc(C(F)(F)F)c(Br)c3)OC(CO)[C@@H]2O)nn1` (stereo partly drawn) [Example 33], the values for the Kd at Galectin-1 and at Galectin-3 were 500 nM and 3000 nM, respectively.
As to `Nc1nc(-c2cn([C@@H]3[C@@H](O)[C@@H](Sc4cc(Cl)cnc4-c4ncc[nH]4)O[C@H](CO)[C@@H]3O)nn2)cs1` [Example 74, 5-Chloro-2-(1H-imidazol-2-yl)pyridin-3-yl 3-[4-(2-aminothiazol-4-yl)-1H-1,2,3-triazol-1-yl]-3-deoxy-1-thio-α-D-galactopyranoside], the Kd at Galectin-1 turned out to be 360 nM; on Galectin-3, 11300 nM.
Taken in the same sequence, the figures for `CO[C@@H]1[C@@H](n2cc(-c3nc(Cl)cs3)nn2)[C@@H](O)[C@@H](CO)O[C@@H]1Sc1cnc(C#N)c(Cl)c1` [Example 14, 3-Chloro-2-cyanopyridin-5-yl 3-[4-(4-chlorothiazol-2-yl)-1H-1,2,3-triazol-1-yl]-3-deoxy-2-O-methyl-1-thio-α-D-galactopyranoside] were 30 nM and 370 nM.
The corresponding values for `CO[C@@H]1[C@@H](n2cc(-c3nc(Cl)cs3)nn2)[C@@H](O)[C@@H](CO)O[C@@H]1Sc1cc(Cl)ccc1C#N` [Example 96, 5-Chloro-2-cyanophenyl 3-[4-(4-chlorothiazol-2-yl)-1H-1,2,3-triazol-1-yl]-3-deoxy-2-O-methyl-1-thio-α-D-galactopyranoside] are 22 nM and 210 nM.
Turning to `CO[C@@H]1[C@@H](n2cc(-c3nc(Cl)cs3)nn2)[C@@H](O)[C@@H](CO)O[C@@H]1Sc1cncc(SC(F)(F)F)c1` [Example 103, 5-(Trifluoromethylsulfanyl)pyridin-3-yl 3-[4-(4-chlorothiazol-2-yl)-1H-1,2,3-triazol-1-yl]-3-deoxy-2-O-methyl-1-thio-α-D-galactopyranoside], the Kd stood at 330 nM at Galectin-1 and 1000 nM at Galectin-3.
The corresponding values for `CO[C@@H]1[C@@H](n2cc(-c3nc(Cl)cs3)nn2)[C@@H](O)[C@@H](CO)O[C@@H]1Sc1cncc(Cl)c1` [Example 53, 5-Chloropyridin-3-yl 3-[4-(4-chlorothiazol-2-yl)-1H-1,2,3-triazol-1-yl]-3-deoxy-2-O-methyl-1-thio-α-D-galactopyranoside] are 54 nM and 340 nM.
Regarding `CCO[C@@H]1[C@@H](n2cc(-c3nccs3)nn2)[C@@H](O)[C@@H](CO)O[C@@H]1Sc1cc(Cl)cnc1C#N` [Example 71, 5-Chloro-2-cyanopyridin-3-yl 3-deoxy-2-O-ethyl-3-[4-(2-thiazolyl)-1H-1,2,3-triazol-1-yl]-1-thio-α-D-galactopyranoside], the values for the dissociation constant Kd at Galectin-1 and on Galectin-3 were 120 nM and 3600 nM, respectively.
For `N#Cc1ccc(S[C@@H]2C[C@@H](n3cc(-c4csc(N)n4)nn3)[C@@H](O)[C@@H](CO)O2)cc1Cl` [Example 42, 3-Chloro-4-cyanophenyl 3-[4-(2-aminothiazol-4-yl)-1H-1,2,3-triazol-1-yl]-2,3-dideoxy-1-thio-α-D-galactopyranoside], the dissociation constant Kd at Galectin-1 is 730 nM; on Galectin-3 it was 10300 nM.
For the compound `CO[C@@H]1[C@@H](n2cc(-c3nc(Cl)cs3)nn2)[C@@H](O)[C@@H](CO)O[C@@H]1Sc1cnc(C#N)c(Br)c1` [Example 12, 3-Bromo-2-cyanopyridin-5-yl 3-[4-(4-chlorothiazol-2-yl)-1H-1,2,3-triazol-1-yl]-3-deoxy-2-O-methyl-1-thio-α-D-galactopyranoside], the values for the Kd at Galectin-1 and on Galectin-3 were 24 nM and 270 nM, respectively.
In the case of `CCNC(=O)c1ncc(Cl)cc1S[C@H]1O[C@H](CO)[C@H](O)[C@H](n2cc(-c3nc(Cl)cs3)nn2)[C@H]1OC` [Example 94, 5-Chloro-2-(N-ethylcarbamoyl)pyridin-3-yl 3-[4-(4-chlorothiazol-2-yl)-1H-1,2,3-triazol-1-yl]-3-deoxy-2-O-methyl-1-thio-α-D-galactopyranoside], the figures for the dissociation constant Kd on Galectin-1 and at Galectin-3 were 12 nM and 74 nM, respectively.
